Several values for one entry are separate records, joined by “and”; a condition that tells them apart may be missing. Equal values may be shown once. ± gives the expanded uncertainty stated by the source.
Test: relative permittivity at various frequencies (dimensionless); wn = mass fraction of the nth substance listed
Details: Liquid, direct capacitance:P =

## O=C=O [carbon dioxide] + CCO
333.2 K, 10500 kPa, w2 = 0.05
  relative permittivity: 1.32 ± 0.15
333.2 K, 11200 kPa, w2 = 0.05
  relative permittivity: 1.41 ± 0.15
333.2 K, 11900 kPa, w2 = 0.212
  relative permittivity: 2.38 ± 0.15
333.2 K, 12100 kPa, w2 = 0.05
  relative permittivity: 1.48 ± 0.14
333.2 K, 12900 kPa, w2 = 0.212
  relative permittivity: 2.45 ± 0.15
333.2 K, 13000 kPa, w2 = 0.05
  relative permittivity: 1.54 ± 0.14 and 1.53 ± 0.14
333.2 K, 13200 kPa, w2 = 0.212
  relative permittivity: 2.47 ± 0.15
333.2 K, 13700 kPa, w2 = 0.05
  relative permittivity: 1.57 ± 0.14
333.2 K, 14100 kPa, w2 = 0.212
  relative permittivity: 2.52 ± 0.14
333.2 K, 14700 kPa, w2 = 0.212
  relative permittivity: 2.54 ± 0.14
333.2 K, 14900 kPa, w2 = 0.05
  relative permittivity: 1.62 ± 0.14
333.2 K, 15800 kPa, w2 = 0.212
  relative permittivity: 2.59 ± 0.14
333.2 K, 15900 kPa, w2 = 0.05
  relative permittivity: 1.64 ± 0.14
333.2 K, 16200 kPa, w2 = 0.212
  relative permittivity: 2.61 ± 0.14
333.2 K, 16900 kPa, w2 = 0.212
  relative permittivity: 2.62 ± 0.14
333.2 K, 17000 kPa, w2 = 0.05
  relative permittivity: 1.67 ± 0.14
333.2 K, 17300 kPa, w2 = 0.212
  relative permittivity: 2.64 ± 0.14
333.2 K, 17600 kPa, w2 = 0.05
  relative permittivity: 1.69 ± 0.14
333.2 K, 18500 kPa, w2 = 0.212
  relative permittivity: 2.68 ± 0.14
333.2 K, 19100 kPa, w2 = 0.05
  relative permittivity: 1.72 ± 0.14
333.2 K, 19100 kPa, w2 = 0.212
  relative permittivity: 2.7 ± 0.14
333.2 K, 19200 kPa, w2 = 0.212
  relative permittivity: 2.7 ± 0.14
333.2 K, 19400 kPa, w2 = 0.05
  relative permittivity: 1.72 ± 0.14
333.2 K, 21000 kPa, w2 = 0.05
  relative permittivity: 1.75 ± 0.14
333.2 K, 21200 kPa, w2 = 0.212
  relative permittivity: 2.75 ± 0.14
333.2 K, 21300 kPa, w2 = 0.212
  relative permittivity: 2.75 ± 0.14
333.2 K, 21600 kPa, w2 = 0.05
  relative permittivity: 1.75 ± 0.14
333.2 K, 22900 kPa, w2 = 0.05
  relative permittivity: 1.77 ± 0.14
333.2 K, 23000 kPa, w2 = 0.212
  relative permittivity: 2.79 ± 0.14
333.2 K, 23100 kPa, w2 = 0.212
  relative permittivity: 2.79 ± 0.14
333.2 K, 23700 kPa, w2 = 0.05
  relative permittivity: 1.78 ± 0.14
333.2 K, 24900 kPa, w2 = 0.212
  relative permittivity: 2.83 ± 0.14
333.2 K, 25000 kPa, w2 = 0.05
  relative permittivity: 1.8 ± 0.14
333.2 K, 25000 kPa, w2 = 0.212
  relative permittivity: 2.83 ± 0.14
333.2 K, 25200 kPa, w2 = 0.212
  relative permittivity: 2.83 ± 0.14
333.2 K, 25500 kPa, w2 = 0.212
  relative permittivity: 2.85 ± 0.14
333.2 K, 26800 kPa, w2 = 0.212
  relative permittivity: 2.86 ± 0.14
333.2 K, 26900 kPa, w2 = 0.05
  relative permittivity: 1.82 ± 0.14
333.2 K, 27000 kPa, w2 = 0.212
  relative permittivity: 2.87 ± 0.14
333.2 K, 27400 kPa, w2 = 0.05
  relative permittivity: 1.82 ± 0.14
333.2 K, 28400 kPa, w2 = 0.212
  relative permittivity: 2.9 ± 0.14
333.2 K, 28800 kPa, w2 = 0.05
  relative permittivity: 1.83 ± 0.14
333.2 K, 29900 kPa, w2 = 0.05
  relative permittivity: 1.84 ± 0.14
333.2 K, 30600 kPa, w2 = 0.212
  relative permittivity: 2.94 ± 0.14
333.3 K, 11800 kPa, w2 = 0.152
  relative permittivity: 1.99 ± 0.14
333.3 K, 11900 kPa, w2 = 0.1
  relative permittivity: 1.74 ± 0.14
333.3 K, 12900 kPa, w2 = 0.1
  relative permittivity: 1.81 ± 0.14
333.3 K, 12900 kPa, w2 = 0.152
  relative permittivity: 2.07 ± 0.14
333.3 K, 13700 kPa, w2 = 0.1
  relative permittivity: 1.86 ± 0.14
333.3 K, 13800 kPa, w2 = 0.152
  relative permittivity: 2.11 ± 0.14
333.3 K, 14800 kPa, w2 = 0.1
  relative permittivity: 1.9 ± 0.14
333.3 K, 14800 kPa, w2 = 0.152
  relative permittivity: 2.16 ± 0.14
333.3 K, 15700 kPa, w2 = 0.1
  relative permittivity: 1.94 ± 0.14
333.3 K, 15900 kPa, w2 = 0.152
  relative permittivity: 2.2 ± 0.14
333.3 K, 16700 kPa, w2 = 0.1
  relative permittivity: 1.96 ± 0.14
333.3 K, 16700 kPa, w2 = 0.152
  relative permittivity: 2.22 ± 0.14
333.3 K, 17700 kPa, w2 = 0.152
  relative permittivity: 2.26 ± 0.14
333.3 K, 17800 kPa, w2 = 0.1
  relative permittivity: 2 ± 0.14
333.3 K, 18500 kPa, w2 = 0.1
  relative permittivity: 2.01 ± 0.14
333.3 K, 18700 kPa, w2 = 0.152
  relative permittivity: 2.28 ± 0.14
333.3 K, 19400 kPa, w2 = 0.1
  relative permittivity: 2.03 ± 0.14
333.3 K, 19600 kPa, w2 = 0.1
  relative permittivity: 2.03 ± 0.14
333.3 K, 19700 kPa, w2 = 0.152
  relative permittivity: 2.31 ± 0.14
333.3 K, 20600 kPa, w2 = 0.1
  relative permittivity: 2.06 ± 0.14
333.3 K, 20800 kPa, w2 = 0.152
  relative permittivity: 2.33 ± 0.14
333.3 K, 21700 kPa, w2 = 0.1
  relative permittivity: 2.08 ± 0.14
333.3 K, 22000 kPa, w2 = 0.152
  relative permittivity: 2.36 ± 0.14
333.3 K, 22600 kPa, w2 = 0.1
  relative permittivity: 2.09 ± 0.14
333.3 K, 22700 kPa, w2 = 0.152
  relative permittivity: 2.37 ± 0.14
333.3 K, 23500 kPa, w2 = 0.152
  relative permittivity: 2.38 ± 0.14
333.3 K, 23900 kPa, w2 = 0.1
  relative permittivity: 2.11 ± 0.14
333.3 K, 24500 kPa, w2 = 0.152
  relative permittivity: 2.4 ± 0.14
333.3 K, 24800 kPa, w2 = 0.1
  relative permittivity: 2.12 ± 0.14
333.3 K, 25200 kPa, w2 = 0.1
  relative permittivity: 2.13 ± 0.14
333.3 K, 25600 kPa, w2 = 0.1
  relative permittivity: 2.14 ± 0.14 and 2.13 ± 0.14
333.3 K, 25600 kPa, w2 = 0.152
  relative permittivity: 2.42 ± 0.14
333.3 K, 26500 kPa, w2 = 0.1
  relative permittivity: 2.15 ± 0.14
333.3 K, 26600 kPa, w2 = 0.1
  relative permittivity: 2.15 ± 0.14
333.3 K, 26600 kPa, w2 = 0.152
  relative permittivity: 2.43 ± 0.14
333.3 K, 27200 kPa, w2 = 0.1
  relative permittivity: 2.16 ± 0.14
333.3 K, 27500 kPa, w2 = 0.1
  relative permittivity: 2.16 ± 0.14
333.3 K, 27600 kPa, w2 = 0.152
  relative permittivity: 2.45 ± 0.14
333.3 K, 27900 kPa, w2 = 0.1
  relative permittivity: 2.16 ± 0.14
333.3 K, 28400 kPa, w2 = 0.152
  relative permittivity: 2.46 ± 0.14
333.3 K, 28500 kPa, w2 = 0.1
  relative permittivity: 2.17 ± 0.14
333.3 K, 29200 kPa, w2 = 0.1
  relative permittivity: 2.18 ± 0.14
333.3 K, 29200 kPa, w2 = 0.152
  relative permittivity: 2.47 ± 0.14
333.3 K, 29900 kPa, w2 = 0.152
  relative permittivity: 2.48 ± 0.14
